In patent publication US9510598B2, “Nitrogen-containing heterocyclic compounds for plant disease control” (BAYER CROPSCIENCE AG, priority 2012, dated 2016):
Where two headings read alike, the source gives them in different places. Each block holds one compound with its values, some of them ahead of it.

Type: physicochemical
[1] = HPLC on reversed phase columns, method [a]: pH 2.7, 0.1% formic acid in water / acetonitrile, linear gradient 10% to 95% acetonitrile
[2] = HPLC on reversed phase columns, method [a]: pH 2.7, 0.1% formic acid in water and acetonitrile, linear gradient 10% to 95% acetonitrile
[3] = method [a]: HPLC/LC-MS on reversed phase at pH 2.7, 0.1% formic acid in water / acetonitrile, gradient 10% to 95% acetonitrile
[4] = reversed phase HPLC column, HPLC reversed phase, pH 2.7, 0.1% formic acid in water / acetonitrile, linear gradient 10% to 95% acetonitrile, calibration with alkan-2-ones, read-out: log P (HCOOH)
[5] = method [a]: HPLC/LC-MS on reversed phase at pH 2.7, 0.1% formic acid in water / acetonitrile, linear gradient 10% to 95% acetonitrile

log P [1]: 2.96^[a]
Structure (SMILES): CCn1cc(CNC(=O)C2(C)CC(c3ccc4nc(OC)c(Br)cc4c3)=NO2)c(C)n1 (centres unmarked) [compound 263]

log P [1]: 3.26^[a]
Structure (SMILES): CCCSc1cnc2ccc(C3=NOC(C)(C(=O)NC(C)C)C3)cc2c1 (centres unmarked) [compound 254]

log P [1]: 2.53[a]
Structure (SMILES): CCn1cc(CNC(=O)C2(C(C)=O)CC(c3ccc4ncc(Br)cc4c3)=NO2)c(C)n1 (centres unmarked) [compound 585]

log P [1]: 2.56[a]
Structure (SMILES): Cc1csc(CNC(=O)C2(C)CC(c3ccc4ncc(Br)cc4c3)=NO2)n1 (centres unmarked) [compound 649]

log P [2]: 2.71[a]
Structure (SMILES): C#Cc1cnc2ccc(C3=NOC(C)(C(=O)NCc4ccnc(OC(C)C)c4)C3)cc2c1 (centres unmarked) [compound 764]

log P [3]: 2.37[a]
Structure (SMILES): CCn1cc(CNC(=O)C2(C)CC(c3ccc4ncc(-c5ccco5)cc4c3)=NO2)c(C)n1 (racemic) [compound 379]

log P [2]: 3.76[a]
Structure (SMILES): C#Cc1cnc2ccc(C3=NOC(C)(C(=O)NCCc4ccc(C(F)(F)F)cc4Cl)C3)cc2c1 (centres unmarked) [compound 766]

log P [1]: 2.26[a]
Structure (SMILES): C#Cc1cnc2ccc(C3=NOC(C)(C(=O)NCc4nc(C)cs4)C3)cc2c1 (centres unmarked) [compound 648]

chromatographic logP [4]: 1.96
Structure (SMILES): O=Cc1ccc2ncc(Cl)cc2c1 [3-chloroquinoline-6-carbaldehyde]

log P [2]: 3.27[a]
Structure (SMILES): C#Cc1cnc2ccc(C3=NOC(C)(C(=O)NCC4(C)CCC4)C3)cc2c1 (centres unmarked) [compound 753]

log P [2]: 2.71[a]
Structure (SMILES): C#Cc1cnc2ccc(C3=NOC(C)(C(=O)NCC4CC(F)(F)C4)C3)cc2c1 (centres unmarked) [compound 813]

log P [1]: 3.06[a]
Structure (SMILES): CC(=O)C1(C(=O)NC2CCC2)CC(c2ccc3ncc(Br)cc3c2)=NO1 (centres unmarked) [compound 583]

log P [5]: 3.33^[a]
Structure (SMILES): CC1(C(=O)NCC2OCCc3ccccc32)CC(c2ccc3ncc(Br)cc3c2)=NO1 (centres unmarked) [compound 117]

log P [5]: 3.65^[a]
Structure (SMILES): C#Cc1cnc2ccc(C3=NOC(C)(C(=O)NCC#Cc4ccc(Cl)cc4)C3)cc2c1 (centres unmarked) [compound 229]

chromatographic logP [4]: 3.02
Structure (SMILES): CC(C)NC(=O)C1(C)CC(c2ccc3ncc(-c4ccccc4)cc3c2)=NO1 (centres unmarked) [Compound No. 141]

log P [1]: 2.96[a]
Structure (SMILES): C#Cc1cnc2ccc(C3=NOC(C)(C(=O)NCc4cn(CCCCC)nc4C)C3)cc2c1 (centres unmarked) [compound 654]

log P [1]: 3.92[a]
Structure (SMILES): C#Cc1cnc2ccc(C3=NOC(C)(C(=O)NC(c4cccc(C)c4)C(F)(F)F)C3)cc2c1 (centres unmarked) [compound 354]

log P [2]: 2.51[a]
Structure (SMILES): C#Cc1cnc2ccc(C3=NOC(OC)(C(=O)NCc4cn(CC)nc4Cl)C3)cc2c1 (centres unmarked) [compound 705]

log P [2]: 2.04[a]
Structure (SMILES): C/C(=N\O)NC(=O)C1(C)CC(c2ccc3ncc(Br)cc3c2)=NO1 (centres unmarked) [compound 723]

log P [1]: 3.61[a]
Structure (SMILES): C=C(C)C1(C(=O)NC2CCC2)CC(c2ccc3ncc(Br)cc3c2)=NO1 (centres unmarked) [compound 521]

log P [2]: 2.68[a]
Structure (SMILES): CC(C)(C#N)NC(=O)C1(C)CC(c2ccc3ncc(Br)cc3c2)=NO1 (centres unmarked) [compound 716]

log P [1]: 3.80[a]
Structure (SMILES): CC(C)CC(C)NC(=O)C1(C)CC(c2ccc3ncc(Br)cc3c2)=NO1 (centres unmarked) [compound 321]

log P [2]: 1.93[a]
Structure (SMILES): C#Cc1cnc2ccc(C3=NOC(C)(C(=O)NCC4CS(=O)(=O)CCO4)C3)cc2c1 (centres unmarked) [compound 756]

log P [5]: 1.37^[a]
Structure (SMILES): CCN1CCCC1CNC(=O)C1(C)CC(c2ccc3ncc(Br)cc3c2)=NO1 (centres unmarked) [compound 126]

log P [3]: 2.84[a]
Structure (SMILES): CCn1cc(CNC(=O)C2(C)CC(c3ccc4ncc(C(F)=CC(F)(F)F)cc4c3)=NO2)c(C)n1 (centres unmarked) [compound 405]

log P [2]: 1.64[a]
Structure (SMILES): C#Cc1cnc2ccc(C3=NOC(C)(C(=O)NCc4cc(CC)ccn4)C3)cc2c1 (centres unmarked) [compound 745]

chromatographic logP [4]: 2.71
Structure (SMILES): O=Cc1cc2cc(Br)cnc2c(F)c1F [3-bromo-7,8-difluoroquinoline-6-carbaldehyde]

log P [1]: 3.39[a]
Structure (SMILES): CC(C)(C)NC(=O)C1(C)CC(c2ccc3ncc(Br)cc3c2)=NO1 (centres unmarked) [compound 319]

log P [1]: 1.96[a]
Structure (SMILES): C#Cc1cnc2ccc(C3=NOC(C)(C(=O)NCc4ccc(OC)cn4)C3)cc2c1 (centres unmarked) [compound 631]

log P [5]: 1.42^[a]
Structure (SMILES): C#Cc1cnc2ccc(C3=NOC(C)(C(=O)NCc4ccnc(N5CCCC5)c4)C3)cc2c1 (centres unmarked) [compound 166]

log P [1]: 3.7^[a]
Structure (SMILES): C#Cc1cnc2ccc(C3=NOC(C)(C(=O)NCC[Si](C)(C)C)C3)cc2c1 (centres unmarked) [compound 231]

log P [3]: 2.31[a]
Structure (SMILES): CCn1cc(CNC(=O)C2(CC(=O)OC)CC(c3ccc4ncc(Br)cc4c3)=NO2)c(C)n1 (racemic) [compound 386]

log P [1]: 2.77[a]
Structure (SMILES): C#Cc1cnc2ccc(C3=NOC(C)(C(=O)NCc4cccc(OC)n4)C3)cc2c1 (centres unmarked) [compound 665]

log P [1]: 4.36[a]
Structure (SMILES): Cc1cccc(C(NC(=O)C2(C)CC(c3ccc4ncc(Br)cc4c3)=NO2)C(F)(F)F)c1 (centres unmarked) [compound 358]

log P [5]: 4.16^[a]
Structure (SMILES): CC1(C(=O)NCc2cc(Cl)cc(Cl)c2)CC(c2ccc3ncc(Br)cc3c2)=NO1 (centres unmarked) [compound 97]

log P [2]: 1.67[a]
Structure (SMILES): COC1(C(=O)NC2CCN(C)CC2)CC(c2ccc3ncc(I)cc3c2)=NO1 (centres unmarked) [compound 702]

chromatographic logP (pH 2.7): 3.04
Structure (SMILES): CC(C)NC(=O)C1(C)CC(c2ccc3ncc(-c4cccs4)cc3c2)=NO1 (centres unmarked) [Compound No. 144]

log P [2]: 2.84[a]
Structure (SMILES): C#Cc1cnc2ccc(C3=NOC(C)(C(=O)NCc4cccnc4OCC)C3)cc2c1 (centres unmarked) [compound 785]

log P [1]: 2.54[a]
Structure (SMILES): COc1cc(CNC(=O)C2(C)CC(c3ccc4ncc(Br)cc4c3)=NO2)ccn1 (centres unmarked) [compound 671]

log P [1]: 2.63[a]
Structure (SMILES): C#Cc1cnc2ccc(C3=NOC(C)(C(=O)NCc4cn(C5CCC5)nc4C)C3)cc2c1 (centres unmarked) [compound 632]

log P [5]: 1.98^[a]
Structure (SMILES): C#Cc1cnc2ccc(C3=NOC(C)(C(=O)NC4CCCCNC4=O)C3)cc2c1 (centres unmarked) [compound 230]

log P [1]: 2.57[a]
Structure (SMILES): CCn1cc(CNC(=O)C2(C)CC(c3ccc4nc(C#N)c(Br)cc4c3)=NO2)c(C)n1 (centres unmarked) [compound 302]

log P [3]: 2.66[a]
Structure (SMILES): COC(=O)CC1(C(=O)NC(C)C)CC(c2ccc3ncc(Br)cc3c2)=NO1 (racemic) [compound 387]

log P [2]: 2.20[a]
Structure (SMILES): C#Cc1cnc2ccc(C3=NOC(C)(C(=O)NCc4cc(C#N)ccn4)C3)cc2c1 (centres unmarked) [compound 751]

log P [2]: 1.49[a]
Structure (SMILES): CN(C)c1cc(CNC(=O)C2(C)CC(c3ccc4ncc(Br)cc4c3)=NO2)ccn1 (centres unmarked) [compound 801]

log P [2]: 2.10[a]
Structure (SMILES): CC1(C(=O)N/C(=N/O)c2cccnc2)CC(c2ccc3ncc(Br)cc3c2)=NO1 (centres unmarked) [compound 741]

log P [1]: 1.40[a]
Structure (SMILES): COc1ccncc1CNC(=O)C1(C)CC(c2ccc3ncc(Br)cc3c2)=NO1 (centres unmarked) [compound 670]

log P [5]: 4.16^[a]
Structure (SMILES): CC1(C(=O)NCCc2ccc(Cl)cc2Cl)CC(c2ccc3ncc(Br)cc3c2)=NO1 (centres unmarked) [compound 110]

log P [1]: 3.17[a]
Structure (SMILES): C=C(C)C1(C(=O)NCc2cn(CCC)nc2C)CC(c2ccc3ncc(Br)cc3c2)=NO1 (centres unmarked) [compound 519]

log P [2]: 2.41[a]
Structure (SMILES): C#Cc1cnc2ccc(C3=NOC(C)(C(=O)NCc4cncc(Cl)n4)C3)cc2c1 (centres unmarked) [compound 789]

log P [2]: 2.64[a]
Structure (SMILES): C#Cc1cnc2ccc(C3=NOC(C)(C(=O)NCc4ccnc(C(F)(F)F)c4)C3)cc2c1 (centres unmarked) [compound 762]

log P [2]: 2.84[a]
Structure (SMILES): CCn1cc(CNC(=O)C2(C)CC(c3ccc4ncc(Br)cc4c3)=NO2)c(Cl)n1 (centres unmarked) [compound 704]

log P [1]: 2.94[a]
Structure (SMILES): C#CC1(C(=O)NCCCOCC)CC(c2ccc3ncc(Br)cc3c2)=NO1 (centres unmarked) [compound 627]

log P [1]: 3.15[a]
Structure (SMILES): C#Cc1cnc2ccc(C3=NOC(C)(C(=O)N(OC)C(C)C)C3)cc2c1 (centres unmarked) [compound 650]

log P [1]: 2.07[a]
Structure (SMILES): C#Cc1cnc2ccc(C3=NOC(C)(C(=O)NCc4cccc(C(C)C)n4)C3)cc2c1 (centres unmarked) [compound 660]

log P [1]: 3.59[a]
Structure (SMILES): CON(C(=O)C1(C)CC(c2ccc3ncc(Br)cc3c2)=NO1)C(C)C (centres unmarked) [compound 651]

log P [5]: 3.48^[a]
Structure (SMILES): C#Cc1cnc2ccc(C3=NOC(C)(C(=O)NC4(C#C)CCCCC4)C3)cc2c1 (centres unmarked) [compound 218]

log P [1]: 1.99[a]
Structure (SMILES): CC(NC(=O)C1(C)CC(c2ccc3ncc(Br)cc3c2)=NO1)c1nn(C)c(=O)n1C (centres unmarked) [compound 327]

log P [2]: 2.01[a]
Structure (SMILES): C#Cc1cnc2ccc(C3=NOC(C)(C(=O)NCc4cnc(OC)nc4)C3)cc2c1 (centres unmarked) [compound 689]

log P [1]: 3.04[a]
Structure (SMILES): CC(C)NC(=O)C1(C)ON=C(c2ccc3ncc(Br)cc3c2)C1C (centres unmarked) [compound 274]

log P [2]: 1.43[a]
Structure (SMILES): Cc1ccncc1CNC(=O)C1(C)CC(c2ccc3ncc(Br)cc3c2)=NO1 (centres unmarked) [compound 693]

log P [5]: 3.5^[a]
Structure (SMILES): CC1(C(=O)NCc2cnn(-c3ccccc3)n2)CC(c2ccc3ncc(Br)cc3c2)=NO1 (centres unmarked) [compound 96]

log P [2]: 1.43[a]
Structure (SMILES): C#Cc1cnc2ccc(C3=NOC(C)(C(=O)NCc4cccnc4N(C)C)C3)cc2c1 (centres unmarked) [compound 808]

log P [1]: 3.55[a]
Structure (SMILES): CC(C)NC(=O)C12CCCCC1C(c1ccc3ncc(Br)cc3c1)=NO2 (centres unmarked) [compound 272]

log P [1]: 2.41[a]
Structure (SMILES): CC(O)C1(C(=O)NC2CCC2)CC(c2ccc3ncc(Br)cc3c2)=NO1 (centres unmarked) [compound 563]

log P [1]: 3.31[a]
Structure (SMILES): CCCCCn1cc(CNC(=O)C2(C)CC(c3ccc4ncc(Br)cc4c3)=NO2)c(C)n1 (centres unmarked) [compound 655]

log P [3]: 4.19[a]
Structure (SMILES): C#Cc1cnc2ccc(C3=NOC(C)(C(=O)NC(C)CCCCCC)C3)cc2c1 (racemic) [compound 367]

log P [1]: 4.06^[a]
Structure (SMILES): CC1(C(=O)NCC#Cc2ccc(Cl)cc2)CC(c2ccc3ncc(Br)cc3c2)=NO1 (centres unmarked) [compound 248]

log P [1]: 3.25^[a]
Structure (SMILES): C#Cc1cnc2ccc(C3=NOC(C)(C(=O)NC4CCCCC4)C3)cc2c1 (centres unmarked) [compound 236]

log P [1]: 2.37[a]
Structure (SMILES): C#Cc1cnc2c(Cl)cc(C3=NOC(OC)(C(=O)NCc4cnc(C)cn4)C3)cc2c1 (centres unmarked) [compound 591]

log P [1]: 3.99[a]
Structure (SMILES): CC1(C(=O)NC(COc2ccc(F)cc2)C2CC2)CC(c2ccc3ncc(Br)cc3c2)=NO1 (centres unmarked) [compound 315]

log P [5]: 3.06^[a]
Structure (SMILES): CC1(C(=O)NCc2cccs2)CC(c2ccc3ncc(Br)cc3c2)=NO1 (centres unmarked) [compound 89]

log P [3]: 2.73[a]
Structure (SMILES): CC(ONC(=O)C1(C)CC(c2ccc3ncc(Br)cc3c2)=NO1)C1CC1 (racemic) [compound 375]

log P [2]: 1.42[a]
Structure (SMILES): C#Cc1cnc2ccc(C3=NOC(C)(C(=O)NC(C)CN(C)C)C3)cc2c1 (centres unmarked) [compound 701]
